Results on four molecules are retold here after BindingDB's records for PubMed 35367706 (University of Newcastle, 2022).

The Ki is the dissociation constant of the complex between target and ligand, obtained from inhibition or displacement. Higher therefore signals a looser hold on the target. As usually defined, the IC50 is the concentration needed to halve the response being measured. Read a high IC50 as a need for much substance.

Structures are written as SMILES.

The nature of experiment [1]: Binding affinity to influenza A/Beijing/262/95 H1N1 neuraminidase expressed in baculovirus expression system using sialyl-lactose as substrate.
Experiment [2] in a line: Inhibition of Influenza A virus (A/Guangdong/03/2009(H1N1)) neuraminidase using 4-MUNANA as substrate preincubated for 1 hr followed by substrate addition and measured after 1 hr by fluorescence assay.
Experiment [3] in a line: Inhibition of Influenza A virus (A/Guangdong/05/2009(H1N1)) neuraminidase using 4-MUNANA as substrate preincubated for 1 hr followed by substrate addition and measured after 1 hr by fluorescence assay.
The nature of experiment [4]: Inhibition of Influenza A virus (A/GuangdongSB/01/2009(H1N1)) neuraminidase using 4-MUNANA as substrate preincubated for 1 hr followed by substrate addition and measured after 1 hr by fluorescence assay.

Molecule `Nc1c(S(=O)(=O)O)cc(Nc2ccc(Nc3nc(Cl)nc(Nc4ccccc4S(=O)(=O)O)n3)c(S(=O)(=O)O)c2)c2c1C(=O)c1ccccc1C2=O` had a Ki in experiment [1] of 2900 nM.
For `C/C=C/Oc1cc(C=O)ccc1O`, the IC50 was 28 µM in experiment [2], 25 µM in experiment [3] and 27 µM in experiment [4].
Molecule `O=S(=O)(O)c1ccccc1Nc1nc(Cl)nc(Nc2ccccc2S(=O)(=O)O)n1` had a Ki in experiment [1] of 280 nM. That is a sub-micromolar value.
On the same count and under the same terms, the figure for `O=S(=O)(O)c1cccc(Nc2nc(Cl)nc(Nc3cccc(S(=O)(=O)O)c3)n2)c1` is 130 nM.
